“Also recorded” adds a separate entry of the source.
Key:
carcinoma cell lines = conditions: in some of the cell lines; Fanjul et al. 1996; cited from earlier work
[1] = system: MCF-7 human breast cancer lines; conditions: Toma et al. 1997; cited from earlier work
HL-60 cells = experiment: Cell proliferation assay (MTT) in HL-60 leukemia cell line; format: cell-based, human
Experimental: (§1) The SK-BR-3, T47D and HL-60 cell cultures in which the assay procedures were performed are also well known and are available from sources well known in the art. Specifically, as is known, T47D is an estrogen receptor positive (ER^+) human breast cancer cell line, and SK-BR-3 is an estrogen receptor negative (ER^−) human breast cancer cell line. HL-60 is a well known human myeloid leukemia cell line. The assay procedure for the breast cancer lines itself is well known in the art and involves determining incorporation of 5-bromo-2′-deoxyuridine (BrdU) into the cells. As is known, incorporation of less BrdU represents less cell proliferation (inhibition of cell proliferation), and this assay is accepted in the art as a measure of anti-proliferative or anti-tumor activity of the assayed agent or agents. The assay procedure for the HL-60 cell line is also well-known in the art. It involves measuring the concentration of formazan dye which is cleaved from 3-[4,5-dimethylthiazole-2-yl]-2,5-diphenyltetrazolium bromide by viable HL-60 cells.
The human myeloid leukemia cell line HL-60 was cultured in Iscove's modified Dulbecco's medium (IMDM Gibco BRL, Gaithersburg, Md.) supplemented with 10% fetal bovine serum (HyClone, Logan, Utah), 2 mM L-glutamine and 1% antibiotics-antimycotics (Gibco BRL). HL-60 cells were obtained from the American Type Culture Collection (ATCC, Rockville, Md., CCL-240). Cells were cultured at 37° C. in a humidified atmosphere containing 5% CO2.
Proliferation of the HL-60 leukemia cell line was determined by a cell viability and non-radioactive commercial cell proliferation kit (MTT assay; Roche Diagnostics, Indianapolis, Ind.), essentially by following the instructions of the manufacturer. Cells were seeded into 96-well tissue culture plates (Corning Incorporated, Corning, N.Y.) at a concentration of 1000 cells/well. After 24 hours, the cells were treated continuously with tazarotene (Formula 3) and/or IFNs or solvent alone. […] The quantification of viable cells, capable of cleaving MTT to form a formazan dye, was assessed by measuring absorbance at 590 nm. […]
The growth inhibition observed for a combined treatment with tazarotene (Formula 3) and IFNs was analyzed for both synergistic and additive effects. […] The mathematical multiplication of the two surviving fractions after the treatment of either with tazarotene (Formula 3) or with the respective interferon is the calculated value for simple additivity of both agents in combination. This calculated value is compared to the actual value observed to determine the nature of the combination effect. […] Synergism or inhibition was determined for each experiment individually, with the P value being 0.05 in comparison to the simple additivity hypothesis.

SK-BR-3 cells = experiment: Cell proliferation assay (BrdU incorporation) in SK-BR-3 breast cancer cells; format: cell-based, human
Experimental: as §1
(§2) The estrogen receptor-positive (ER^+) cell line T-47D and the ER^− cell line SK-BR-3 were cultured in Dulbecco's modification of Eagle's medium (DMEM Gibco BRL, Gaithersburg, Md.) supplemented with 10% fetal bovine serum (HyClone, Logan, Utah), 2 mM L-glutamine and 1% antibiotics-antimycotics (Gibco BRL). Cell lines were obtained from the American Type Culture Collection (ATCC, Rockville, Md., HTB-133 and HTB-30 for T-47D and SK-BR-3, respectively). Cells were cultured at 37 °C in a humidified atmosphere containing 5% CO2.
(§3) Proliferation of cancer cell lines was determined using a commercial cell proliferation kit (Roche Diagnostics), essentially following the instructions of the manufacturer. Cells were seeded into 96-well tissue culture plates (Corning Incorporated, Corning, N.Y.) at a concentration of 3000 cells/well. After 24 hours, cells were treated continuously with tazarotene (Formula 3) and/or interferons (IFNs) or solvent alone. The appropriate concentrations of tazarotene (Formula 3) used in this study were between 10^−11 M and 10^−6M; IFN concentrations were between 10 and 1000 Unit/ml. Culture media were changed every 72 hours. After 7 days, 10 μl of 5-bromo-2′-deoxyuridine (BrdU) was added to each well. Incubation with BrdU was stopped 24 hours later by adding 100 μl of anti-BrdU antibody to each well. The amount of BrdU incorporated into the DNA of proliferating cells was assessed by measuring absorbance at […]. Each experiment was performed in triplicate in three independent experiments.
(§4) The growth inhibition observed for a combined treatment with tazarotene (Formula 3) and IFNs was analyzed for both synergistic and additive effects. The criteria for these effects have been discussed by three different groups (Aapro et al., Cancer Chemother. Pharmacol., 10: 161-166, 1983, Marth et al. J. Natl Cancer Inst., 77:1197-1202, 1986, Kurbacher et al., Cancer Letters, 103: 183-189, 1996). The mathematical multiplication of the two surviving fractions after the treatment of either with tazarotene (Formula 3) or with the respective interferon is the calculated value for simple additivity of both agents in combination. This calculated value is compared to the actual value observed to determine the nature of the combination effect. […] Synergism or inhibition was determined for each experiment individually, with the P value being 0.05 in comparison to the simple additivity hypothesis.

T-47D cells = experiment: Cell proliferation assay (BrdU incorporation) in T-47D breast cancer cells; format: cell-based, human
Experimental: as §1, §2, §3, §4

[2] = system: MDA-MB 231 human carcinoma cell line; conditions: Kurbacher et al. 1996; cited from earlier work
[3] = system: MCF-7 human carcinoma cell line; conditions: Kurbacher et al. 1996; cited from earlier work

In the case of `COC(=O)c1ccc(/C(C)=C/c2ccc3c(c2)C(C)(C)CCC3(C)C)cc1` [SRI 11220], the “anti-proliferative activity in combination with interferon” value (carcinoma cell lines) is given as “synergistic”.
For `CC1=C(/C=C/C(C)=C/C=C/C(C)=C/C(=O)O)C(C)(C)CCC1` [all trans retinoic acid], the “combination effect with other chemotherapeutic agents such as tamoxifen (TAM)” value [1] is given as “synergistic effect” and the “combination effect with α interferon (α IFN)” value [1] is given as “synergistic effects”.
For `CCOC(=O)c1ccc(C#Cc2ccc3c(c2)C(C)(C)CCS3)nc1` [tazarotene, ethyl 6-[2-(4,4-dimethylthiochroman-6-yl)ethynyl]nicotinate], the “anti-proliferative effect of combination with IFNα (combination effect)” value (HL-60 cells; IFNα constant 100 U/ml, tazarotene varied, FIG. 13) was “significant synergism”, the “anti-proliferative effect of combination with IFNβ (combination effect)” value (HL-60 cells; IFNβ constant 100 U/ml, tazarotene varied, FIG. 14) was “significant synergism” and the “anti-proliferative effect of combination with IFNα (combination effect)” value (HL-60 cells; tazarotene constant 50 nM, IFNα varied 0 to 1000 U/ml, FIG. 15) was “significant synergism”. For the same compound, the “anti-proliferative effect of combination with IFNβ (combination effect)” value (HL-60 cells; tazarotene constant 50 nM, IFNβ varied 0 to 1000 U/ml, FIG. 16) was “significant synergism”, the “anti-proliferative effect of combination with IFNα (combination effect vs theoretically additive curve)” value (SK-BR-3 cells; IFNα constant 100 U/ml, tazarotene varied, FIG. 1) was “synergism; also recorded: synergistic effect” and the “anti-proliferative effect of combination with IFNβ (combination effect)” value (SK-BR-3 cells; IFNβ constant 10 U/ml, tazarotene varied, FIG. 3) was “synergism; also recorded: significant synergistic effect”. For the same compound, the “anti-proliferative effect of combination with IFNγ (combination effect)” value (SK-BR-3 cells; IFNγ constant 100 U/ml, tazarotene varied, FIG. 5) was “synergism; also recorded: significant synergistic effect”, the “anti-proliferative effect of combination with IFNα (combination effect)” value (SK-BR-3 cells; tazarotene constant 10 nM, IFNα varied 0 to 1000 U/ml, FIG. 7) was “striking synergism” and the “anti-proliferative effect of combination with IFNβ (combination effect)” value (SK-BR-3 cells; tazarotene constant 10 nM, IFNβ varied 0 to 1000 U/ml, FIG. 9) was “striking synergism”. The “anti-proliferative effect of combination with IFNγ (combination effect)” value (SK-BR-3 cells; tazarotene constant 10 nM, IFNγ varied 0 to 1000 U/ml, FIG. 11) was “striking synergism”, the “anti-proliferative effect of combination with IFNα (combination effect)” value (T-47D cells; IFNα constant 100 U/ml, tazarotene varied, FIG. 2) was “synergism, although not as striking as in the assays with SK-BR-3 cells” and the “anti-proliferative effect of combination with IFNβ (combination effect)” value (T-47D cells; IFNβ constant 100 U/ml, tazarotene varied, FIG. 4) was “synergism; also recorded: synergism, although not as striking as in the assays with SK-BR-3 cells”. For the same compound, the “anti-proliferative effect of combination with IFNγ (combination effect)” value (T-47D cells; IFNγ constant 100 U/ml, tazarotene varied, FIG. 6) was “synergism, although not as striking as in the assays with SK-BR-3 cells”, the “anti-proliferative effect of combination with IFNα (combination effect)” value (T-47D cells; tazarotene constant 10 nM, IFNα varied 0 to 1000 U/ml, FIG. 8) was “weak synergism” and the “anti-proliferative effect of combination with IFNβ (combination effect)” value (T-47D cells; tazarotene constant 10 nM, IFNβ varied 0 to 1000 U/ml, FIG. 10) was “significant synergism”.
In the case of `O=C1O[C@H]([C@@H](O)CO)C(O)=C1O` [vitamin C], the “combination effect with certain chemotherapeutic anti-tumor agents” value [2] is listed as “synergistic action” and the “combination effect with certain chemotherapeutic anti-tumor agents” value [3] is listed as “synergistic action”.

— patent US6903121B1, “TREATMENT OF TUMORS WITH ACETYLENES DISUBSTITUTED WITH A PHENYL OR HETEROAROMATIC GROUP AND A SUBSTITUTED CHROMANYL, THIOCHROMANYL OR TETRAHYDROQUINOLINYL GROUP IN COMBINATION WITH OTHER ANTI-TUMOR AGENTS” (Allergan, Inc., priority 2000, dated 2005)
